Assay [1] concerns Hippocampal organotypic cultures. Put plainly: Hippocampal organotypic cultures (HOC), in vitro model of myelination, MBP Western blot. The conditions noted are these: for reduction of MBP expression elicited by IFN-γ exposure: SAL at various concentrations combined with 100 U/ml IFN-γ for 7 days. Type of assay: cell-based. On the procedure:
Our hypothesis is that the integrated stress response has the potential to protect oligodendrocytes from the harmful effects of the inflammatory response in patients with multiple sclerosis (MS). […] To test whether agents that prolong eIF2α phosphorylation might provide protection to oligodendrocytes against detrimental inflammatory factors, the effect of Salubrinol (Sal) in the presence of the immune cytokine IFN-γ was tested in an in vitro model of myelination.
HOCs, were prepared and maintained as described previously (Kunkler and Kraig (1997) J Cereb Blood Flow Metab. 17:26-43), and were maintained in vitro for 7 days before use. SAL at various concentrations was combined with 100 U/ml IFN-γ and added to the HOC cultures for 7 days. […] After 7 days of 100 U/ml IFN-γ exposure, the levels of MBP decreased approximately 80% in the HOCs (FIG. 29).

The subject of a further assay is PP1-GADD34 phosphatase. The conditions noted are these: results in sustained eIF2α phosphorylation, cited from earlier work.
Assay [2] has as its system transgenic littermates overexpressing IFN-γ and/or SOCS1. In words: IFN-γ-overexpressing mice crossed to PLP/SOCS1 mice, clinical and histological evaluation at postnatal day 21. Type of assay: in vivo. As to conditions: for Incidence of tremor: ten mice per group; for oligodendrocyte density: corpus callosum, postnatal day 21. The text has this:
The transgenic mice MBP/IFN-γ and GFAP/tTA×TRE/IFN-γ (lines 184/110 and 184/67) that overexpress IFN-γ in the CNS have been described elsewhere (Corbin et al., 1996; Gao et al., 2000; Lin et al., 2004, 2005). Briefly, MBP/IFN-γ mice are transgenic animals in which IFN-γ expression is driven by the myelin basic protein (MBP) transcriptional control region (Gao et al., 2000). GFAP/tTA×TRE/IFN-γ are double-transgenic mice obtained by mating single-transgenic GFAP/tTA to single-transgenic TRE/IFN-γ (lines 110 and 67) mice. The two TRE/IFN-γ mouse lines, line 110 and line 67, used in the experiments produce different amounts of IFN-γ when crossed to GFA/tTA mice (184/110 and 184/67) (Lin e al., 2004, 2005). GFAP/tTA×TRE/IFN-γ is a tetracycline-off-inducible system in which the glial fibrilary acidic protein (GFAP) transcriptional control region drives the expression of tTA, which in turn, binds to the TRE (tet responsive element) and initiates the expression of IFN-γ. Administration of doxycycline suppresses tTA DNA binding and IFN-γ expression, and doxycycline removal allows for temporally-controlled induction of IFN-γ expression (Gao et al., 1999).
IFN-γ-overexpressing mice were crossed to the PLP/SOCS1 mice in double-transgenic, (MBP/IFN-γ×PLP/SOCS1) and triple-transgenic (GFAP/tTA×TRE/IFN-γ×PLP/SOCS1) mating systems. MBP/IFN-γ×PLP/SOCS1 (172×PLP/SOCS1) mating was performed according to a standard mating protocol. The GFAP/tTA×TRE/IFN-γ×PLP/SOCS1 matings were performed in a 2-step mating process: GFAP/tTA mice were initially crossed to PLP/SOCS1 mice, and double-positive (184×PLP/SOCS1) offspring were then crossed to the TRE/IFN-γ lines 110 and 67, separately. This second mating step was performed according to the previously described “tet-off” protocol. Doxycycline 0.05 mg/ml (Sigma-Aldich) was added to the water of impregnated female mice until embryonic day 14, after which the animals were switched back to normal water, thereby allowing initiation of IFN-γ transcription, which peaks during the postnatal period (Lin et al., 2005).
The litters of the mating systems (F1 generation) were examined daily and sacrificed at postnatal day 21. Clinical evaluation included behavioral observation and challenged ladder walking to elicit tremor. Histological examination included quantitation of the number and density of oligodendrocytes and examination of the myelination patterns. Brain tissue was simultaneously obtained from each animal at the time of sacrifice to verify and measure the expression of IFN-γ and Flag-SOCS1 (see below). The clinical and histological findings were subsequently stratified according to genotype. All animal procedures were conducted in compliance with the National Institutes of Health Guide for Care and Use of Laboratory Animals and were approved by the Institutional Animal Care and Use Committee at The University of Chicago.
Oligodendrocyte cell density was assessed digitally using Axiovision software, at postnatal day 21, as previously described (Lin et al., 2005). The brains were sectioned sagittally through the corpus callosum dividing the brain in two symmetrical halves. Ten frozen sections from each half were prepared at 7 μm thickness, and numbered in the sequence of their preparation. The brains of three animals per study group were prepared in this fashion. Following the CC1 immunostaining the corresponding area of corpus callosum of each section was digitally selected and the corresponding total area obtained. CC1 cell counting was performed manually within the selected areas of each section, and the number of CC1 positive cells per square area (mm^2) calculated. The results were presented as mean±SD of CC1 (+) cells/mm^2 with n=3 animals per study group. […]

Where two headings read alike, the source gives them in different places.

For the molecule `O=C(/C=C/c1ccccc1)NC(NC(=S)Nc1cccc2cccnc12)C(Cl)(Cl)Cl` (stereo not shown) [SAL, salubrinal], the “reduction of MBP expression elicited by IFN-γ exposure” value in assay [1] is “markedly attenuated”; in assay [1] (listed as Sal), “attenuating effect”. The MBP expression entry in assay [1] (SAL treatment alone) was “did not affect”. Moreover, the PP1-GADD34 phosphatase activity entry with PP1-GADD34 phosphatase is recorded as “specifically inhibits”; in the assay with PP1-GADD34 phosphatase (listed as Salubrinol) it was “specifically inhibit”.

B1: suppressor of cytokine signaling 1 (protein, UniProt O35716 1-212, looked up)
Suppressor of cytokine …: MVARNQVAADNAISPAAEPRRRSEPSSSSSSSSPAAPVRPRPCPAVPAPAPGDTHFRTFRSHSDYRRITRTSALLDACGFYWGPLSVHGAHERLRAEPVGTFLVRDSRQRNCFFALSVKMASGPTSIRVHFQAGRFHLDGSRETFDCLFELLEHYVAAPRRMLGAPLRQRRVRPLQELCRQRIVAAVGRENLARIPLNPVLRDYLSSFPFQI
modifications: Flag tag
With B1, the Incidence of tremor in assay [2] (172 × PLP/SOCS1 mating system), in assay [2] (184/67 × PLP/SOCS1 mating system) and in assay [2] (184/110 × PLP/SOCS1 mating system) was 0% in each case. For the same molecule, the figures for the oligodendrocyte density in assay [2] (184/67 × PLP/SOCS1 system) and in assay [2] (184/110 × PLP/SOCS1 system) were 142±5 CC1 (+) cells/mm^2 and 141±6 CC1 (+) cells/mm^2, respectively.

The values are drawn from patent US8309790B2, “Animal models for demyelination disorders” (University of Chicago, priority 2005, dated 2012).
